{"source": "PubChem BioAssay AID1963436", "about": "(Molecular Pharmacology Branch, DTP, NCI, 2024)", "test_system": "OVCAR-5 complex spheroid (HUVEC/MSC), viability % T/C", "experiment": "Anticancer human tumor OVCAR-5 cell line growth inhibition [Asc];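 on all read-outs here: spheroids exposed to agents for 7 days before readout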;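 on viability, T/C: 100% = DMSO vehicle-treated wells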", "conditions": "for IC50: curve of first compound; for viability, T/C: stronger effect = lower value", "how_it_was_run": "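Spheroid model: tumor line + HUVEC + hMSC. Single agents and combinations; top conc. at/near clinical Cmax (10 microM if undetermined), half-log dilutions. DMSO stocks at 800-fold test concentration.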"}
{"smiles": "Cc1nc(N2CCC3(CC2)COC(C)C3N)c(CO)nc1Sc1ccnc(N)c1Cl", "note": "(stereo not given) + Cc1c(S(C)(=O)=O)c(-c2cc(F)cc(N3CCN(c4ccc(NS(=O)(=O)c5ccc(NC(CCN6CCC(C(=O)OCCCP(=O)(O)O)CC6)CSc6ccccc6)c(S(=O)(=O)C(F)(F)F)c5)cc4)CC3)c2)c(-c2ccc(Cl)cc2)n1C(C)C", "values": [{"measurement": "IC50", "setting": "second compound 0.1 µM", "result": 1.9, "unit": "µM"}, {"measurement": "IC50", "setting": "second compound 0.316 µM", "result": 1.13, "unit": "µM"}, {"measurement": "IC50", "setting": "second compound 1 µM", "result": 1.19, "unit": "µM"}, {"measurement": "IC50", "setting": "second compound 3.16 µM", "result": 0.782, "unit": "µM"}, {"measurement": "IC50", "setting": "second compound 10 µM", "result": 2.85, "unit": "µM"}, {"measurement": "viability, T/C", "setting": "second compound 0.1 µM, first compound 0.00949 µM", "result": 96.4, "unit": "%"}, {"measurement": "viability, T/C", "setting": "second compound 0.1 µM, first compound 0.03 µM", "result": 83.9, "unit": "%"}, {"measurement": "viability, T/C", "setting": "second compound 0.1 µM, first compound 0.0949 µM", "result": 81.7, "unit": "%"}, {"measurement": "viability, T/C", "setting": "second compound 0.1 µM, first compound 0.3 µM", "result": 62.8, "unit": "%"}, {"measurement": "viability, T/C", "setting": "second compound 0.1 µM, first compound 0.949 µM", "result": 55.7, "unit": "%"}, {"measurement": "viability, T/C", "setting": "second compound 0.1 µM, first compound 3 µM", "result": 46.9, "unit": "%"}, {"measurement": "viability, T/C", "setting": "second compound 0.316 µM, first compound 0.00949 µM", "result": 95.8, "unit": "%"}, {"measurement": "viability, T/C", "setting": "second compound 0.316 µM, first compound 0.03 µM", "result": 85.1, "unit": "%"}, {"measurement": "viability, T/C", "setting": "second compound 0.316 µM, first compound 0.0949 µM", "result": 73.9, "unit": "%"}, {"measurement": "viability, T/C", "setting": "second compound 0.316 µM, first compound 0.3 µM", "result": 55.6, "unit": "%"}, {"measurement": "viability, T/C", "setting": "second compound 0.316 µM, first compound 0.949 µM", "result": 55.2, "unit": "%"}, {"measurement": "viability, T/C", "setting": "second compound 0.316 µM, first compound 3 µM", "result": 42.9, "unit": "%"}, {"measurement": "viability, T/C", "setting": "second compound 1 µM, first compound 0.00949 µM", "result": 78.1, "unit": "%"}, {"measurement": "viability, T/C", "setting": "second compound 1 µM, first compound 0.03 µM", "result": 76.9, "unit": "%"}, {"measurement": "viability, T/C", "setting": "second compound 1 µM, first compound 0.0949 µM", "result": 72.4, "unit": "%"}, {"measurement": "viability, T/C", "setting": "second compound 1 µM, first compound 0.3 µM", "result": 68.4, "unit": "%"}, {"measurement": "viability, T/C", "setting": "second compound 1 µM, first compound 0.949 µM", "result": 51.1, "unit": "%"}, {"measurement": "viability, T/C", "setting": "second compound 1 µM, first compound 3 µM", "result": 42.6, "unit": "%"}, {"measurement": "viability, T/C", "setting": "second compound 3.16 µM, first compound 0.00949 µM", "result": 87.7, "unit": "%"}, {"measurement": "viability, T/C", "setting": "second compound 3.16 µM, first compound 0.03 µM", "result": 85, "unit": "%"}, {"measurement": "viability, T/C", "setting": "second compound 3.16 µM, first compound 0.0949 µM", "result": 72.5, "unit": "%"}, {"measurement": "viability, T/C", "setting": "second compound 3.16 µM, first compound 0.3 µM", "result": 59.9, "unit": "%"}, {"measurement": "viability, T/C", "setting": "second compound 3.16 µM, first compound 0.949 µM", "result": 45.6, "unit": "%"}, {"measurement": "viability, T/C", "setting": "second compound 3.16 µM, first compound 3 µM", "result": 46.9, "unit": "%"}, {"measurement": "viability, T/C", "setting": "second compound 10 µM, first compound 0.00949 µM", "result": 105, "unit": "%"}, {"measurement": "viability, T/C", "setting": "second compound 10 µM, first compound 0.03 µM", "result": 94, "unit": "%"}, {"measurement": "viability, T/C", "setting": "second compound 10 µM, first compound 0.0949 µM", "result": 88.6, "unit": "%"}, {"measurement": "viability, T/C", "setting": "second compound 10 µM, first compound 0.3 µM", "result": 87.3, "unit": "%"}, {"measurement": "viability, T/C", "setting": "second compound 10 µM, first compound 0.949 µM", "result": 64.8, "unit": "%"}, {"measurement": "viability, T/C", "setting": "second compound 10 µM, first compound 3 µM", "result": 49, "unit": "%"}]}
